Assay results as given in PubChem BioAssay AID248 (DTP/NCI, 2004).
Where “and” joins values, the source holds several entries; their conditions need not be identical. Equal entries are not always repeated. Inconclusive results and toxic doses are left out. Rule as the data show it: active = T/C of 150% or more; inactive = T/C below 125%.

System: L1210 leukemia ip in BDF1 mice, survival T/C
Assay: NCI In Vivo Anticancer Drug Screen. Data for tumor model L1210 Leukemia (intraperitoneal) in B6D2F1 (BDF1) mice
Details: endpoint: mean survival time, higher = longer survival
Outline: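 Each compound was tested against a transplantable tumor grown in mice. The endpoint was survival, with treated animals benchmarked against vehicle controls as a simple ratio.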

[1] = dose: 100.0 mg/kg/injection, schedule: Q04DX003 (ip), vehicle: Klucel (hydroxypropylcellulose) (HPC)
[2] = dose: 200.0 mg/kg/injection, schedule: Q04DX003 (ip), vehicle: Klucel (hydroxypropylcellulose) (HPC)
[3] = dose: 400.0 mg/kg/injection, schedule: Q04DX003 (ip), vehicle: Klucel (hydroxypropylcellulose) (HPC)
[4] = dose: 50.0 mg/kg/injection, schedule: Q01DX009 (ip), vehicle: Klucel (hydroxypropylcellulose) (HPC)
[5] = dose: 100.0 mg/kg/injection, schedule: Q01DX009 (ip), vehicle: Klucel (hydroxypropylcellulose) (HPC)
[6] = dose: 100.0 mg/kg/injection, schedule: Q04DX003 (ip), vehicle: saline
[7] = dose: 200.0 mg/kg/injection, schedule: Q01DX009 (ip), vehicle: Klucel (hydroxypropylcellulose) (HPC)
[8] = dose: 200.0 mg/kg/injection, schedule: Q04DX003 (ip), vehicle: saline
[9] = dose: 100.0 mg/kg/injection, schedule: Q01DX001 (ip), vehicle: saline
[10] = dose: 200.0 mg/kg/injection, schedule: Q01DX001 (ip), vehicle: saline
[11] = dose: 400.0 mg/kg/injection, schedule: Q01DX001 (ip), vehicle: saline
[12] = dose: 100.0 mg/kg/injection, schedule: Q01DX009 (ip), vehicle: saline with Tween-80
[13] = dose: 200.0 mg/kg/injection, schedule: Q01DX009 (ip), vehicle: saline with Tween-80
[14] = dose: 400.0 mg/kg/injection, schedule: Q04DX003 (ip), vehicle: saline
[15] = dose: 50.0 mg/kg/injection, schedule: Q01DX009 (ip), vehicle: saline with Tween-80
[16] = dose: 100.0 mg/kg/injection, schedule: Q01DX001 (ip), vehicle: carboxymethylcellulose (CMC)

Measured: T/C

CC1(CCCC2C(=O)N(c3ccccc3)N(c3ccccc3)C2=O)OCCO1
inactive: [1] 104 % of control | [2] 98 % of control | [3] 94 % of control

[O-][n+]1ccc2ccccc2c1
inactive: dose: 50.0 mg/kg/injection, schedule: Q01DX005 (ip), vehicle: Klucel (hydroxypropylcellulose) (HPC) 102 % of control | [4] 101 % of control | dose: 100.0 mg/kg/injection, schedule: Q01DX001 (ip), vehicle: other 110 % of control | dose: 100.0 mg/kg/injection, schedule: Q01DX005 (ip), vehicle: Klucel (hydroxypropylcellulose) (HPC) 97 % of control | [5] 108 % of control | dose: 100.0 mg/kg/injection, schedule: Q04DX002 (ip), vehicle: Klucel (hydroxypropylcellulose) (HPC) 106 % of control | [6] 111 % of control | dose: 200.0 mg/kg/injection, schedule: Q01DX001 (ip), vehicle: other 100 % of control | dose: 200.0 mg/kg/injection, schedule: Q01DX005 (ip), vehicle: Klucel (hydroxypropylcellulose) (HPC) 105 % of control | [7] 111 % of control | dose: 200.0 mg/kg/injection, schedule: Q04DX002 (ip), vehicle: Klucel (hydroxypropylcellulose) (HPC) 109 % of control | [8] 114 % of control | dose: 400.0 mg/kg/injection, schedule: Q01DX001 (ip), vehicle: other 103 % of control

Cn1cc(C(=O)O)c(=O)c2ccc(/C=C/c3ccc([N+](=O)[O-])o3)nc21
inactive: [9] 92 % of control | [10] 101 % of control | [11] 103 % of control

O=C(O)CCSCCC(=O)O
inactive: dose: 75.0 mg/kg/injection, schedule: Q01DX009 (ip), vehicle: Klucel (hydroxypropylcellulose) (HPC) 92 % of control | dose: 75.0 mg/kg/injection, schedule: Q04DX003 (ip), vehicle: saline 100 % of control | dose: 150.0 mg/kg/injection, schedule: Q01DX009 (ip), vehicle: Klucel (hydroxypropylcellulose) (HPC) 92 % of control | dose: 150.0 mg/kg/injection, schedule: Q04DX003 (ip), vehicle: saline 100 % of control | dose: 300.0 mg/kg/injection, schedule: Q01DX009 (ip), vehicle: Klucel (hydroxypropylcellulose) (HPC) 94 % of control | dose: 300.0 mg/kg/injection, schedule: Q04DX003 (ip), vehicle: saline 102 % of control

CC(C)(C)c1cc(/C=N/NC(=O)CC2CCCCC2)cc(C(C)(C)C)c1O
inactive: [12] 92 % of control | [13] 92 % of control | dose: 400.0 mg/kg/injection, schedule: Q01DX009 (ip), vehicle: saline with Tween-80 97 % of control

CCC1C(=O)OCc2c1cc1n(c2=O)CCC1 (stereo unspecified)
inactive: dose: 25.0 mg/kg/injection, schedule: Q01DX001 (ip), vehicle: saline 113 % of control | dose: 50.0 mg/kg/injection, schedule: Q01DX001 (ip), vehicle: saline 104 % of control | [9] 104 % of control | [10] 115 % of control

BrC1(Br)CC1(c1ccccc1)c1ccccc1
inactive: [5] 93 % of control | [1] 107 % of control | [6] 107 % of control | [7] 97 % of control | [2] 107 % of control | [8] 107 % of control | dose: 400.0 mg/kg/injection, schedule: Q01DX009 (ip), vehicle: Klucel (hydroxypropylcellulose) (HPC) 101 % of control | [3] 97 % of control | [14] 97 % of control

O=S(=O)(C1CCCCC1)N1N=NC2CCCCC21 (stereo unspecified)
inactive: [15] 93 % of control | [12] 90 % of control

CN(C)C1c2ccccc2-c2ccc(N)cc21 (stereo unspecified)
inactive: [16] 94 % of control

COC(OC)c1[nH]c(=S)[nH]c(=O)c1Cc1ccccc1
inactive: dose: 25.0 mg/kg/injection, schedule: Q01DX009 (ip), vehicle: saline with Tween-80 98 % of control | [15] 96 % of control | [12] 98 % of control | dose: 100.0 mg/kg/injection, schedule: Q04DX003 (ip), vehicle: saline with Tween-80 102 % of control | [13] 86 % of control | dose: 200.0 mg/kg/injection, schedule: Q04DX003 (ip), vehicle: saline with Tween-80 96 % of control | dose: 400.0 mg/kg/injection, schedule: Q04DX003 (ip), vehicle: saline with Tween-80 94 % of control

CC1=CC2C(C3C=CC2(C)C(=O)C3(C)Cc2ccccc2)C(C)(Cc2ccccc2)C1=O (stereo unspecified)
inactive: [4] 94 % of control | dose: 75.0 mg/kg/injection, schedule: Q01DX001 (ip), vehicle: Klucel (hydroxypropylcellulose) (HPC) 100 % of control | [5] 96 % of control | dose: 150.0 mg/kg/injection, schedule: Q01DX001 (ip), vehicle: Klucel (hydroxypropylcellulose) (HPC) 99 % of control | [7] 93 % of control | dose: 300.0 mg/kg/injection, schedule: Q01DX001 (ip), vehicle: Klucel (hydroxypropylcellulose) (HPC) 96 % of control

O=[N+]([O-])C1CCCCC1O (stereo unspecified)
inactive: dose: 10.0 mg/kg/injection, schedule: Q01DX001 (ip), vehicle: saline 103 % of control | dose: 20.0 mg/kg/injection, schedule: Q01DX001 (ip), vehicle: saline 105 % of control | dose: 40.0 mg/kg/injection, schedule: Q01DX001 (ip), vehicle: saline 100 % of control

CCOC(=O)c1[nH]c(-c2ccc(OC)cc2)c(C(=O)OCC)c1-c1ccccc1
inactive: dose: 100.0 mg/kg/injection, schedule: Q01DX001 (ip), vehicle: Klucel (hydroxypropylcellulose) (HPC) 88 % of control | dose: 200.0 mg/kg/injection, schedule: Q01DX001 (ip), vehicle: Klucel (hydroxypropylcellulose) (HPC) 108 % of control | dose: 400.0 mg/kg/injection, schedule: Q01DX001 (ip), vehicle: Klucel (hydroxypropylcellulose) (HPC) 114 % of control

Oc1ccccc1C1SCSCS1
inactive: [1] 97 % of control | [2] 98 % of control | [3] 103 % of control

N#Cc1cn(C2OC(CO)C(O)C2O)c2ncnc(N)c12 (stereo unspecified)
inactive: dose: 0.04 mg/kg/injection, schedule: Q01DX009 (ip), vehicle: saline 119 % of control | dose: 0.08 mg/kg/injection, schedule: Q01DX005 (ip), vehicle: saline 86 % of control | dose: 0.09 mg/kg/injection, schedule: Q01DX009 (ip), vehicle: saline 107 % of control | dose: 0.12 mg/kg/injection, schedule: Q01DX005 (ip), vehicle: saline 96 % of control

O=C1c2ccccc2C(=O)c2c(Nc3ccccc3)ccc(O)c21
inactive: [1] 97 % of control | [2] 98 % of control

COC(=O)c1ccccc1N(C)C(=O)Nc1ccc(F)cc1
inactive: [16] 94 % of control | dose: 100.0 mg/kg/injection, schedule: Q01DX009 (ip), vehicle: carboxymethylcellulose (CMC) 92 % of control and 97 % of control | dose: 100.0 mg/kg/injection, schedule: Q04DX002 (ip), vehicle: carboxymethylcellulose (CMC) 92 % of control and 100 % of control | dose: 100.0 mg/kg/injection, schedule: Q04DX003 (ip), vehicle: carboxymethylcellulose (CMC) 104 % of control | dose: 200.0 mg/kg/injection, schedule: Q01DX001 (ip), vehicle: carboxymethylcellulose (CMC) 101 % of control | dose: 200.0 mg/kg/injection, schedule: Q01DX009 (ip), vehicle: carboxymethylcellulose (CMC) 87 % of control and 90 % of control | dose: 200.0 mg/kg/injection, schedule: Q04DX002 (ip), vehicle: carboxymethylcellulose (CMC) 98 % of control and 89 % of control | dose: 200.0 mg/kg/injection, schedule: Q04DX003 (ip), vehicle: carboxymethylcellulose (CMC) 102 % of control | dose: 400.0 mg/kg/injection, schedule: Q01DX001 (ip), vehicle: carboxymethylcellulose (CMC) 89 % of control | dose: 400.0 mg/kg/injection, schedule: Q01DX009 (ip), vehicle: carboxymethylcellulose (CMC) 98 % of control and 105 % of control | dose: 400.0 mg/kg/injection, schedule: Q04DX002 (ip), vehicle: carboxymethylcellulose (CMC) 98 % of control | dose: 400.0 mg/kg/injection, schedule: Q04DX003 (ip), vehicle: carboxymethylcellulose (CMC) 90 % of control

O=C(COc1ccc(Cl)c(Cl)c1)Nc1ccc[n+](Cc2ccc(Cl)c(S(=O)(=O)F)c2)c1
inactive: [6] 106 % of control | [8] 94 % of control | [14] 105 % of control

C=C(C)C(N)=O
inactive: dose: 100.0 mg/kg/injection, schedule: Q01DX009 (ip), vehicle: saline 102 % of control | dose: 200.0 mg/kg/injection, schedule: Q01DX009 (ip), vehicle: saline 94 % of control

COc1ccc(C2ON2C2CCCCC2)cc1OC (stereo unspecified)
inactive: [10] 106 % of control | [11] 100 % of control
